We go through 23 molecules from patent US20070190523A1 (priority 2002, published 2007).

Structures are written as SMILES. Like-named read-outs stand apart in the source and are kept apart here. Where only a bound is given, the exact number is not on record here.

One may read the Ki as the dissociation constant of the complex between target and ligand, obtained from inhibition or displacement.

The target in series [1] is T1, WT (Human immunodeficiency virus type 1 group M subtype B, UniProt P04585). Put plainly: cell-based. Also on record: species or system HIV.
Series [2] deals with T2, 84V90M (Human immunodeficiency virus type 1 group M subtype B, UniProt P04585, I572V/L578M). The experiment in a line: biochemical. It counts as biochemical, HIV.
A further series concerns 30N82I88D. Put plainly: microbe, parasite or virus in culture. The class given is cell-based, HIV.
Series [3] has as its target T2, 84V90M. The experiment in a line: cell-based. Also on record: species or system HIV.
Series [4] deals with recombinant HIV-1 protease (Human immunodeficiency virus type 1 group M subtype B, UniProt P04585). The experiment in a line: biochemical. It counts as biochemical.
Series [5] relates to mutant HIV-1 with I84V/L90M mutations. It counts as cell-based.
Series [6] relates to wild-type HIV-1 strain IIIB. The experiment in a line: microbe, parasite or virus in culture. The class given is cell-based. The following applies: read-out: EC50.
Series [7] concerns the target T2, 84V90M. The experiment in a line: Cell-based assay (MT-4) EC50, 84V90M. Further details: species or system HIV-1.
For series [8], the system named is recombinant HIV-1 strains with resistance mutations in the protease gene. The experiment in a line: Cross-Resistance Profile Assay, whole panel. The class given is cell-based.
The subject of the next series is 46I50V. Put plainly: microbe, parasite or virus in culture. It counts as cell-based, HIV.
The next series concerns 48V54V82A. Put plainly: microbe, parasite or virus in culture. The class given is cell-based, HIV.
The target in series [9] is T2, 84V90M. It counts as biochemical, HIV-1. The following applies: 84V90M enzyme; read-out: Enzymatic assay 84V90M IC50/nM.
For series [10], the system named is recombinant HIV-1 46I/47V/50V. The experiment in a line: Cross-Resistance Profile Assay. It counts as cell-based.
The test system of series [11] is recombinant HIV-1 10F/46I/71V/82T/90M. Put plainly: Cross-Resistance Profile Assay. It counts as cell-based.
Series [12] relates to recombinant HIV-1 46I/84A. The experiment in a line: Cross-Resistance Profile Assay. It counts as cell-based.
The test system of series [13] is recombinant HIV-1 48V/54V/71V/82S. The experiment in a line: Cross-Resistance Profile Assay. It counts as cell-based.
In series [14] the test system is recombinant HIV-1 10I/48V/71V/82A/90M. The experiment in a line: Cross-Resistance Profile Assay. It counts as cell-based.
Series [15] relates to recombinant HIV-1 10I/84V/71V/73S/90M. Put plainly: Cross-Resistance Profile Assay. It counts as cell-based.
For series [16], the system named is recombinant HIV-1 10R/46I/82T/84V. Put plainly: Cross-Resistance Profile Assay. It counts as cell-based.
Series [17] concerns recombinant HIV-1 10I/48V/54V/82A. Put plainly: Cross-Resistance Profile Assay. It counts as cell-based.
For series [18], the system named is recombinant HIV-1 54V/71V/82S. Put plainly: Cross-Resistance Profile Assay. It counts as cell-based.
For series [19], the system named is recombinant HIV-1 30N/50S/82I/88D. The experiment in a line: Cross-Resistance Profile Assay. The class given is cell-based.
A further series relates to 48V82A90M. The experiment in a line: microbe, parasite or virus in culture. Further details: species or system HIV. To be noted: Human immunodeficiency virus 1, read-out: Cell-based assay (MT-4) EC50/nM 48V82A90M.
The target of series [20] is T1, WT. The experiment in a line: biochemical. Also on record: species or system HIV.
The subject of the next series is 48V54V82S. The experiment in a line: microbe, parasite or virus in culture. Further details: species or system HIV. The following applies: Human immunodeficiency virus 1, read-out: Cell-based assay (MT-4) EC50/nM 48V54V82S.
Setting [21] is: Enzymatic assay, 84V90M, read-out: 84V90M IC50/nM.
Setting [22] is: Human immunodeficiency virus 1, read-out: Cell-based assay (MT-4) EC50/nM 30N82I88D.
Setting [23] is: MT-4, 84V90M, read-out: Cell-based assay (MT-4) EC50/nM 84V90M.
[24] abbreviates: MT-4, WT, read-out: Cell-based assay (MT-4) EC50/nM WT.

For `Nc1n[nH]c2ccc(CN3C(=O)N(Cc4ccc(OCP(=O)(O)O)cc4)C(Cc4ccccc4)C(O)C(O)C3Cc3ccccc3)cc12` (stereo not drawn) [p-OCH2PO3H2], the EC50 on WT [1] was > 12000 nM. The IC50 on 84V90M [2] (setting [21]) amounted to 1660 nM.

With `Nc1n[nH]c2ccc(CN3C(=O)N(Cc4ccc(OCc5ccccc5)cc4)C(Cc4ccccc4)C(O)C(O)C3Cc3ccccc3)cc12` (stereo not drawn) [p-OBn], the EC50 in the series on 30N82I88D (setting [22]) is 1550 nM; at WT [1], 2120 nM; on 84V90M [3] it was 5310 nM. The IC50 at 84V90M [2] (setting [21]) came out at 781 nM.

With `Cc1cccc(C)c1OCC(=O)N[C@@H](Cc1ccc(OCP(=O)(Oc2ccccc2)Oc2ccccc2)cc1)[C@H](O)CN(CC(C)C)S(=O)(=O)c1ccc(N)cc1`, the Ki in series [4] (read-out: Ki) was 0.01 to 0.1 nM.

For the molecule `CCOC(=O)C(C)OP(=O)(Cc1ccc(N(C)CC(NC(=O)OC2COC3OCCC23)C(O)CN(CC(C)C)S(=O)(=O)c2ccc(OC)cc2)cc1)Oc1ccccc1` (stereo not drawn), in series [5] (I84V/L90M mutant), the I84V/L90M fold change result is listed as “+++ (>30)”. Besides, in [4] (read-out: Ki), the Ki is 0.01 to 0.1 nM. Further, the EC50 in series [6] is 500 to 5000 nM.

In the case of `O=C1N(Cc2ccccc2)C(Cc2ccccc2)C(O)C(O)C(Cc2ccc(OCP(=O)(OCc3ccccc3)OCc3ccccc3)cc2)N1Cc1ccccc1` (stereo not drawn), the EC50 at 84V90M [7] is > 6000 nM.

Regarding `CC(C)CN(C[C@@H](O)[C@H](Cc1ccccc1)NC(=O)O[C@H]1CCOC1)S(=O)(=O)c1ccc(N)cc1` [Amprenavir, amprenavir], the “Total No. of Resistant Viruses” value in series [8] ({}) was found to be 4.

With `CCOP(=O)(COc1ccc(CC2C(O)C(O)C(Cc3ccccc3)N(Cc3ccccc3)C(=O)N2Cc2ccccc2)cc1)OCC` (stereo not drawn), the EC50 at WT [1] was 107 nM; at 84V90M [3] (setting [23]) it was 2460 nM.

For `CCOP(=O)(COCCCN1C(=O)N(Cc2ccc3[nH]nc(N)c3c2)C(Cc2ccccc2)C(O)C(O)C1Cc1ccccc1)OCC` (stereo not drawn) [OCH2PO3Et2], the EC50 with 30N82I88D (MT-4, 30N82I88D, read-out: Cell-based assay (MT-4) EC50/nM 30N82I88D) was determined as 145 nM; on WT [1] (setting [24]), 356 nM; in the series on 46I50V (MT-4, 46I50V, read-out: Cell-based assay (MT-4) EC50/nM 46I50V) it was 138 nM; with 48V54V82A (MT-4, 48V54V82A, read-out: Cell-based assay (MT-4) EC50/nM 48V54V82A), 175 nM.

Regarding `O=C1N(Cc2ccccc2)[C@H](Cc2ccccc2)[C@H](O)[C@@H](O)[C@@H](Cc2ccccc2)N1Cc1ccc2[nH]ncc2c1` [reference compound], the EC50 on WT [1] came to 193 nM; at 84V90M [3] (setting [23]), 2310 nM.

In the case of `CCOP(=O)(CCNC(=O)Oc1ccc(CC2C(O)C(O)C(Cc3ccc(OC)cc3)N(Cc3ccc(O)cc3)C(=O)N2Cc2ccc(O)cc2)cc1)OCC` (stereo not drawn) [OCH3 / Ph-pOH / OCONH(CH2)2PO3Et2], the EC50 at 84V90M [7] stood at 495 nM.

As for `CCOP(=O)(CCNC(=O)Oc1ccc(CC2C(O)C(O)C(Cc3ccc(OC)cc3)N(Cc3cccc(N)c3)C(=O)N2Cc2cccc(N)c2)cc1)OCC` (stereo not drawn) [OCH3 / Ph-mNH2 / OCONH(CH2)2PO3Et2], at 84V90M [9], the IC50 worked out at 116 nM. On 84V90M [7], this molecule registered an EC50 of 2260 nM.

On to `CCOP(=O)(COc1ccc(CC2C(O)C(O)C(Cc3ccc(O)cc3)N(Cc3ccc(O)cc3)C(=O)N2Cc2ccc(O)cc2)cc1)OCC` (stereo not drawn) [OH, Ph-pOH, OCH2PO3Et2], for which the EC50 on WT [1] was determined as 285 nM; at 84V90M [3] (setting [23]), 1910 nM.

Regarding `CC(C)(C)NC(=O)[C@@H]1C[C@@H]2CCCC[C@@H]2CN1C[C@@H](O)[C@H](Cc1ccccc1)NC(=O)[C@H](CC(N)=O)NC(=O)c1ccc2ccccc2n1` [Saquinavir], the “Total No. of Resistant Viruses” value in series [8] ({}) was determined as 4.

On to `Cc1cccc(C)c1OCC(=O)N[C@@H](Cc1ccccc1)[C@@H](O)C[C@H](Cc1ccccc1)NC(=O)[C@H](C(C)C)N1CCCNC1=O` [Lopinavir], for which the “Fold Change in EC50 Relative to WT HIV-1” value in series [10] is 19 fold; in series [11] it was 7.5 fold; in series [12], 9 fold; in series [13], 60 fold; in [14], 4.5 fold; in [15], 11 fold. The “Fold Change in EC50 Relative to WT HIV-1” value in series [16] was found to be 11 fold. The “Total No. of Resistant Viruses” value in [8] ({}) is 6.

Turning to `CCCCOC(=O)C(C)NP(=O)(COc1ccc(CC(NC(=O)OC2COC3OCCC23)C(O)CN(CC(C)C)S(=O)(=O)c2ccc(OC)cc2)cc1)NC(C)C(=O)OCCCC` (stereo not drawn) [GS-16503], the “Total No. of Resistant Viruses” value in series [8] (resistance = 5-fold and higher change in EC50 relative to wild type, 11 mutant viruses) is reported as 0. Moreover, the “increase of conversion to acid metabolites at 1 μM vs. 10 μM” value with MT-2 cells was 3 fold.

As to `Nc1n[nH]c2ccc(CN3C(=O)N(Cc4cccc(OCc5ccccc5)c4)C(Cc4ccccc4)C(O)C(O)C3Cc3ccccc3)cc12` (stereo not drawn) [m-OBn], the EC50 on WT [1] stood at 218 nM; on 84V90M [3] (setting [23]), 2420 nM. Besides, the IC50 at 84V90M [2] (setting [21]) was determined as 27 nM.

With `Nc1n[nH]c2ccc(CN3C(=O)N(CCCOCP(=O)(O)O)C(Cc4ccccc4)C(O)C(O)C3Cc3ccccc3)cc12` (stereo not drawn) [OCH2PO3H2], the EC50 is 1070 nM on WT [1] (setting [24]) and > 600 nM at 84V90M [3] (setting [23]).

`Cc1c(O)cccc1C(=O)N[C@@H](CSc1ccccc1)[C@H](O)CN1C[C@H]2CCCC[C@H]2C[C@H]1C(=O)NC(C)(C)C` [Nelfinavir, nelfinavir]: the “Total No. of Resistant Viruses” value in series [8] ({}) came out at 9.

For the molecule `CC(C)c1nc(CN(C)C(=O)N[C@H](C(=O)N[C@@H](Cc2ccccc2)C[C@H](O)[C@H](Cc2ccccc2)NC(=O)OCc2cncs2)C(C)C)cs1` [Ritonavir], the “Total No. of Resistant Viruses” value in series [8] ({}) was determined as 10.

For the molecule `CC(C)(C)NC(=O)[C@@H]1CN(Cc2cccnc2)CCN1C[C@@H](O)C[C@@H](Cc1ccccc1)C(=O)N[C@H]1c2ccccc2C[C@H]1O` [Indinavir], the “Total No. of Resistant Viruses” value in series [8] ({}) was 8.

Take `CCC[C@@]1(CCc2ccccc2)CC(O)=C([C@H](CC)c2cccc(NS(=O)(=O)c3ccc(C(F)(F)F)cn3)c2)C(=O)O1` [Tipranavir]: the “Fold Change in EC50 Relative to WT HIV-1” value in series [10] was 0.5 fold; in series [17], 0.4 fold; in series [11], 3 fold; in series [18] it was 3.5 fold; in series [12], 1 fold; in series [13], 2 fold. Further, the figures for the “Fold Change in EC50 Relative to WT HIV-1” value in series [19], in [14] and in series [16] were 0.5 fold, 0.3 fold and 5 fold, respectively. Further, the “Total No. of Resistant Viruses” value in [8] ({}) worked out at 1. In series [5] (fold difference in EC50 vs wild type, class symbols), the I84V/L90M fold change result is “+ (>3 to ≦10)”.

Take `COc1ccc(S(=O)(=O)N(CC(C)C)C[C@@H](O)[C@H](Cc2ccccc2)NC(=O)O[C@H]2CO[C@H]3OCC[C@H]32)cc1` [Example 94-003]: the “Total No. of Resistant Viruses” value in series [8] ({}) amounted to 3.

`CCOP(=O)(CCCNC(=O)c1cccc(CN2C(=O)N(Cc3ccc(O)cc3)C(Cc3ccccc3)C(O)C(O)C2Cc2ccccc2)c1)OCC` (stereo not drawn): the EC50 came to 74 nM in the series on 30N82I88D (setting [22]); 65 nM on WT [1]; 85 nM in the series with 46I50V (Human immunodeficiency virus 1, read-out: Cell-based assay (MT-4) EC50/nM 46I50V); 311 nM on 84V90M [3]; 80 nM in the series on 48V54V82A (Human immunodeficiency virus 1, read-out: Cell-based assay (MT-4) EC50/nM 48V54V82A); 74 nM with 48V82A90M. For the same molecule, the EC50 in the series with 48V54V82S worked out at 75 nM. The IC50 was determined as 12 nM on 84V90M [2] and 1.1 nM against WT [20]. The Ki in series [4] (Ki (nM)) amounted to 0.009 nM.
